These results are taken from patent publication US20100152261A1 (MITSUBISHI TANABE PHARMA CORPORATION, priority 2005, published 2010).

Read-outs that look alike come from different tables or passages of the source.

In assay [1] the target is T1, muscarinic M2 receptor (Cavia porcellus, UniProt H0VRN8).
T1 construct: left atria were excised to prepare tissue specimens; from tissue; host or cells: isolated guinea pig left atrium (male Hartley)
T1 sequence (H0VRN8 1-466): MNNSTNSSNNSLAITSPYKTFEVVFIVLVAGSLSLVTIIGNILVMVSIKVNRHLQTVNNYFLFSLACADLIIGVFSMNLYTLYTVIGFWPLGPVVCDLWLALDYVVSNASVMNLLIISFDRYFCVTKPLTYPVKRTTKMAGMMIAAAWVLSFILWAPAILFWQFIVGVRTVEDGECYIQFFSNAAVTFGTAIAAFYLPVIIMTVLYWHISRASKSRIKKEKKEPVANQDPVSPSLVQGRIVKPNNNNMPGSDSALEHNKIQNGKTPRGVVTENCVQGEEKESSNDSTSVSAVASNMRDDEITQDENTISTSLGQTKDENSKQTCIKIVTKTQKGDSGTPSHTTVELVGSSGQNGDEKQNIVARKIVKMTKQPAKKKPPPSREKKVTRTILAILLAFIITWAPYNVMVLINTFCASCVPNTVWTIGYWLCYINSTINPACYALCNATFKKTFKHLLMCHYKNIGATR
As to the kind of experiment: Muscarinic M2 antagonistic action in isolated guinea pig left atrium (carbachol-induced relaxation, Schild method). It is filed as cell-based. The conditions noted are these: compound applied 30 minutes before carbachol. On the procedure:
Muscarinic M2 Antagonistic Action in Isolated Guinea Pig Left Atrium […] Each tissue specimen was kept warm at 37° C., suspended with a resting tension of 0.5 g in a 5-mL Magnus bath filled with a Krebs carbonate buffer bubbled with 95% O2/5% CO2. Then, contraction evoked by field electrical stimulation (4 Hz, 2 msec, 1.5×threshold potential) was measured. After a stabilization period of 60 minutes, carbachol-induced relaxation was isometrically measured and recorded by the cumulative method from 10^−8 M with an interval of 90 seconds for one concentration in an equal ratio of 3. After the measurement, the tissue specimen was immediately washed, and left for 45 minutes as a stabilization period before the next observation. The tissue specimen of which EC50 for the carbachol-induced relaxation was stabilized was considered as a control. Each test compound was applied 30 minutes before the addition of carbachol. The affinity (pA2) of the test compound was obtained in the same manner as in the case of the trachea.

Assay [2] has as its target T2, muscarinic M3 receptor (Cavia porcellus, UniProt H0W1Z3).
T2 construct: trachea was excised, and cut at every two tracheal cartilages to prepare tissue specimens; from tissue; host or cells: isolated guinea pig trachea (male Hartley)
The assay is described as follows: Muscarinic M3 antagonistic action in isolated guinea pig trachea (carbachol-induced contraction, Schild method). Type of assay: cell-based. The conditions noted are these: compound applied 15 minutes before carbachol. As to the method:
Muscarinic M3 Antagonistic Action in Isolated Guinea Pig Trachea
Male Hartley guinea pigs (350 to 600 g) were sacrificed by bleeding, and trachea was excised, and cut at every two tracheal cartilages to prepare tissue specimens. Each tissue specimen was kept warm at 37° C., suspended with a resting tension of 1 g in a 5-mL Magnus bath filled with a Krebs carbonate buffer containing indomethacin (1 μM) bubbled with 95% O2/5% CO2, and left for 60 minutes as a stabilization period. […] After the measurement, the tissue specimen was immediately washed, and left for 60 minutes as a stabilization period before the next contraction reaction, and the tissue specimen of which EC50 for the carbachol-induced contraction reaction was stabilized was considered as a control. Each test compound was applied 15 minutes before the addition of carbachol. The affinity (pA2) of the test compound was obtained by the Schild method (Arunlakshana, O. and Schild, H. O., Brit. J. Pharmacol., 1959, 14, 48-58).

Where [3] appears, read: pA2 Left atrium M2, isolated guinea pig left atrium.
The mark [4] stands for this setting: pA2 Trachea M3, isolated guinea pig trachea.

T2 sequence (H0W1Z3 1-590): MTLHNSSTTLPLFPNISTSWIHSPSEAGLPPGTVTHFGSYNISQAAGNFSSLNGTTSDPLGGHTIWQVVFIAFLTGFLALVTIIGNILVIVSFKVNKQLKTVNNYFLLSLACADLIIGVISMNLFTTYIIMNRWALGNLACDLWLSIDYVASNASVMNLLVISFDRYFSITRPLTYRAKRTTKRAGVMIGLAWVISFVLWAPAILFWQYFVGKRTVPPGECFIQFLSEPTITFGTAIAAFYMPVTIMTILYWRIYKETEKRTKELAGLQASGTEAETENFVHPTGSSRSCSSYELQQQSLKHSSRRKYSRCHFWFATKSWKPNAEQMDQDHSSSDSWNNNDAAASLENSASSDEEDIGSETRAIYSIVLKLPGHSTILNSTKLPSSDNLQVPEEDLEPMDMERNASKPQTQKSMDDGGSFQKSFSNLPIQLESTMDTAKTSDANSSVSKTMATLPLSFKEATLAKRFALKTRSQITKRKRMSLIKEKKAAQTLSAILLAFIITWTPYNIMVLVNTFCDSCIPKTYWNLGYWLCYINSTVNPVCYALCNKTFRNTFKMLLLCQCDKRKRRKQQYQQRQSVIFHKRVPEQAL

Regarding “3-(trans-3-(Carbamoyl(diphenyl)methyl)cyclopentyl)-1-cyclopentylmethyl-2-methyl-3H-imidazol-1-ium bromide [Example 68]”, the “pA2 Left atrium M2” value in assay [1] (isolated guinea pig left atrium) came to 7.4. Further, the “pA2 Trachea M3” value in assay [2] (isolated guinea pig trachea) worked out at 9.4.

As for `C[n+]1ccn([C@H]2CC[C@@H](C(C(N)=O)(c3ccccc3)c3ccccc3)C2)c1` (relative stereo) [Example 5, 3-(cis-3-(Carbamoyl(diphenyl)methyl)cyclopentyl)-1-methyl-3H-imidazol-1-ium iodide], the Kb in assay [1] (setting [3]) was 31.6 nM; in assay [2] (setting [4]), 2.51 nM. Taken in the same sequence, the figures for `CCOCC[n+]1ccn([C@H]2CC[C@@H](C(C(N)=O)(c3ccccc3)c3ccccc3)C2)c1C` (relative stereo) [Example 25, 3-(cis-3-(Carbamoyl(diphenyl)methyl)cyclopentyl)-1-(2-ethoxy-ethyl)-2-methyl-3H-imidazol-1-ium bromide] were 25.1 nM and 1.58 nM. In the same order, the values of `CC(=O)OCC[n+]1ccn([C@H]2CC[C@@H](C(C(N)=O)(c3ccccc3)c3ccccc3)C2)c1C` (relative stereo) [Example 51, 3-(cis-3-(Carbamoyl(diphenyl)methyl)cyclopentyl)-1-(2-acetoxy-ethyl)-2-methyl-3H-imidazol-1-ium bromide] are 31.6 nM and 1 nM. Taken in the same sequence, the figures for `Cc1n([C@H]2CC[C@@H](C(C(N)=O)(c3ccccc3)c3ccccc3)C2)cc[n+]1CCCO` (relative stereo) [Example 54, 3-(cis-3-(Carbamoyl(diphenyl)methyl)cyclopentyl)-1-(3-hydroxy-propyl)-2-methyl-3H-imidazol-1-ium bromide] were 31.6 nM and 1 nM. As to `Cc1n([C@H]2CC[C@H](C(C(N)=O)(c3ccccc3)c3ccccc3)C2)cc[n+]1C` (relative stereo) [Example 66, 3-(trans-3-(Carbamoyl(diphenyl)methyl)cyclopentyl)-1,2-dimethyl-3H-imidazol-1-ium iodide], the Kb in assay [1] (setting [3]) was 39.8 nM; in assay [2] (setting [4]), 1.26 nM. For the molecule `COCC[n+]1ccn([C@H]2CC[C@H](C(C(N)=O)(c3ccccc3)c3ccccc3)C2)c1C` (relative stereo) [Example 67, 3-(trans-3-(Carbamoyl(diphenyl)methyl)cyclopentyl)-1-(2-methoxyethyl)-2-methyl-3H-imidazol-1-ium bromide], the Kb in assay [1] (setting [3]) was 79.4 nM; in assay [2] (setting [4]), 1.26 nM. Regarding `C[n+]1cn([C@H]2CC[C@@H](C(C(N)=O)(c3ccccc3)c3ccccc3)C2)cn1` (relative stereo) [Example 69, 4-(cis-3-(Carbamoyl(diphenyl)methyl)cyclopentyl)-1-methyl-4H-[1,2,4]triazol-1-ium iodide], the results for the Kb in assay [1] (setting [3]) and in assay [2] (setting [4]) were 25.1 nM and 0.794 nM, respectively.

With `NC(=O)C(c1ccccc1)(c1ccccc1)[C@@H]1CC[C@H](n2c[n+](Cc3ccccc3)cn2)C1` (relative stereo) [Example 71, 4-Benzyl-1-(cis-3-(carbamoyl(diphenyl)methyl)cyclopentyl)-1H-[1,2,4]triazol-4-ium bromide], the Kb in assay [1] (setting [3]) was 39.8 nM; in assay [2] (setting [4]), 0.794 nM. `COCC[n+]1cn([C@H]2CC[C@@H](C(C(N)=O)(c3ccccc3)c3ccccc3)C2)cn1` (relative stereo) [Example 72, 4-(cis-3-(Carbamoyl(diphenyl)methyl)cyclopentyl)-1-(2-methoxyethyl)-4H-[1,2,4]triazol-1-ium bromide]: the Kb in assay [1] (setting [3]) was 31.6 nM; in assay [2] (setting [4]), 0.794 nM. In the same order, the values of `Cc1n([C@H]2CC[C@H](C(C(N)=O)(c3ccccc3)c3ccccc3)C2)cc[n+]1CCC(C)C` (relative stereo) [Example 73, 3-(trans-3-(Carbamoyl(diphenyl)methyl)cyclopentyl)-2-methyl-1-(3-methylbutyl)-3H-imidazol-1-ium bromide] are 6.31 nM and 0.631 nM.

In the case of `CC(=O)OCCC[n+]1ccn([C@H]2CC[C@H](C(C(N)=O)(c3ccccc3)c3ccccc3)C2)c1C` (relative stereo) [Example 75, 1-(3-Acetoxypropyl)-3-(trans-3-(carbamoyl(diphenyl)methyl)cyclopentyl)-2-methyl-3H-imidazol-1-ium bromide], the Kb in assay [1] (setting [3]) is 158 nM; in assay [2] (setting [4]), 0.501 nM. Taken in the same sequence, the figures for `CC(=O)C[n+]1ccn([C@H]2CC[C@H](C(C(N)=O)(c3ccccc3)c3ccccc3)C2)c1C` (relative stereo) [Example 86, 3-(trans-3-(Carbamoyl(diphenyl)methyl)cyclopentyl)-2-methyl-1-(2-oxopropyl)-3H-imidazol-1-ium bromide] were 1260 nM and 1.26 nM.

As to `Cc1n([C@H]2CC[C@H](C(C#N)(c3ccccc3)c3ccccc3)C2)cc[n+]1Cc1ccccc1` (relative stereo) [Example 87, 1-Benzyl-3-(trans-3-(cyano(diphenyl)methyl)cyclopentyl)-2-methyl-3H-imidazol-1-ium bromide], the Kb was 50.1 nM in assay [1] (setting [3]) and 1 nM in assay [2] (setting [4]). Taken in the same sequence, the figures for `CC(=O)C[n+]1ccn([C@H]2CC[C@H](C(C#N)(c3ccccc3)c3ccccc3)C2)c1C` (relative stereo) [Example 88, 3-(trans-3-(Cyano(diphenyl)methyl)cyclopentyl)-2-methyl-1-(2-oxopropyl)-3H-imidazol-1-ium bromide] were 251 nM and 1 nM.

For `Cc1n([C@H]2CC[C@H](C(C(N)=O)(c3ccccc3)c3ccccc3)C2)cc[n+]1Cc1ccccc1` (single isomer, unassigned) [Example 97, 1-Benzyl-3-(trans-3-(carbamoyl(diphenyl)methyl)cyclopentyl)-2-methyl-3H-imidazol-1-ium bromide], the Kb is 3.98 nM in assay [1] (setting [3]) and 0.1 nM in assay [2] (setting [4]).

In the case of `Cc1n([C@H]2CC[C@H](C(C(N)=O)(c3ccccc3)c3ccccc3)C2)cc[n+]1Cc1ccccc1` (single isomer, unassigned) [Example 98, 1-Benzyl-3-(trans-3-(carbamoyl(diphenyl)methyl)cyclopentyl)-2-methyl-3H-imidazol-1-ium bromide], the Kb is 15.8 nM in assay [1] (setting [3]) and 0.398 nM in assay [2] (setting [4]). In assay [1] (setting [3]), `CN1[C@@H]2CC[C@H]1C[C@@H](OC(=O)C(CO)c1ccccc1)C2` (stereo partly drawn) [Atropine, reference compound] gave a Kb of 2.51 nM. For the molecule `CC1=[N+](C)CCN1[C@@H]1CC[C@H](C(C(N)=O)(c2ccccc2)c2ccccc2)C1` [Example 57, 3-((1R,3S)-3-(Carbamoyl(diphenyl)methyl)cyclopentyl)-1,2-dimethyl-4,5-dihydro-3H-imidazol-1-ium iodide], the values for the Kb in assay [1] (setting [3]) and in assay [2] (setting [4]) were 25.1 nM and 1.26 nM, respectively. In the same order, the values of `CC1=[N+](C)CCN1[C@H]1CC[C@@H](C(C(N)=O)(c2ccccc2)c2ccccc2)C1` [Example 58, 3-((1S,3R)-3-(Carbamoyl(diphenyl)methyl)cyclopentyl)-1,2-dimethyl-4,5-dihydro-3H-imidazol-1-ium iodide] are 79.4 nM and 3.16 nM.

Regarding `COCC[n+]1ccn([C@H]2CC[C@@H](C(C(N)=O)(c3ccccc3)c3ccccc3)C2)c1C` [Example 76, 3-((1S,3R)-3-(Carbamoyl(diphenyl)methyl)cyclopentyl)-1-(2-methoxyethyl)-2-methyl-3H-imidazol-1-ium para-toluenesulfonate], the Kb in assay [1] (isolated guinea pig left atrium, read-out: pA2 Left atrium M2 (converted)) was 200 nM; in assay [2] (isolated guinea pig trachea, read-out: pA2 Trachea M3 (converted)) it was 1.26 nM.

On to `Cc1n([C@H]2CC[C@@H](C(C(N)=O)(c3ccccc3)c3ccccc3)C2)cc[n+]1C(F)F` [Example 81, 3-((1S,3R)-3-(Carbamoyl(diphenyl)methyl)cyclopentyl)-1-difluoromethyl-2-methyl-3H-imidazol-1-ium bromide], for which the Kb in assay [2] (setting [4]) was 1 nM.
